Laboratory results published in patent publication US20130217132A1, “METHODS, COMPOSITIONS AND USE FOR ENHANCING CHEMICAL TOLERANCE BY MICROORGANISMS” (priority 2009, published 2013).
Converted amounts (≈) assume the structure as drawn. Like-named read-outs stand apart in the source and are kept apart here.

Experiments:
MG1655 E. coli strain = assay: Minimum inhibitory concentration (MIC) assay of furfural in MOPS minimal media; format: cell-based; details: Escherichia coli
Protocol: In one exemplary method, assays were performed to determine minimum inhibitory concentration (MIC) of ethanol, furfural and acetate for BW25113 and MG1655 E. coli strains. […] Cells from each strain were inoculated from the same optical density into a total of 100 μL of varying furfural concentrations in a minimal media, for example using MOPS. Cell growth in the first 24 hr or 48 hr in the presence of furfural was monitored. The left bar in each pair for each indicated strain represents a first concentration of furfural that inhibited bacterial growth after 24 hr. The right bar for each strain represents the first concentration that inhibited growth after 48 hr. The MIC reads were the average of triplicates (n=3), and error bars represent standard deviation. […] ArecA signifies strains where the gene has been knocked out as previously described.
The minimum inhibitory concentration (MIC) of furfural of MG1655 and BW25113 with or without lpcA overexpression was determined. MIC assays were performed as described in Example 13. […] MIC reads were average of triplicates (n=3), and error bars represent standard deviation. The SDS-PAGE gel image in FIG. 17C represents LPS level of the cells indicated above the gel image (duplicate of each cell sample was presented). LPS was extracted from the indicated cells grown to exponential phase. Loading of LPS the SDS-PAGE gel was normalized to the cell number. The gel was stained for visualization after desired separation of LPS was obtained.

[1] = system: aldehyde dehydrogenase (A1DH; EC 1.2.1.5); details: 0.12 g/L furfural; cited from earlier work
[2] = system: BW25113 ArecA cells overexpressing lpcA gene (pLPCA); format: cell-based, E. coli; details: for OD600 (cell growth in the presence of furfural): furfural 1 g/L, lpcA overexpression, FIG. 19
Protocol: (§1) FIGS. 17A-17B represent methods of identification of a gene related to restoring tolerance. Multiple genome-wide SCALE selection was performed in the presence of ethanol, furfural and acetate respectively. The data set obtained for each compound was compared to the others. Alleles enriched in all cases were identified. […] To restore tolerance, overexpression of identified genes in bacterial cells was performed. For example, lpcA ORF was cloned into the pBTL-1 vector. BW25113 ArecA cells transformed with the blank pBTL-1 vector were used as a control. BW25113 ArecA cells overexpressing lpcA gene were referred to as pLPCA. Cells were inoculated at a standard cell density into MOPS minimal media, supplemented with furfural, acetate or ethanol. After 24 hours, growth of the cells was analyzed.
(§2) The indicated cells were grown in MOPS minimal media supplemented with glucose as a carbon source. Furfural was added to the media at the concentration of 1 g/L. Arabinose was added at 10 mM where indicated to gauge effect of AraC binding. The BW25113 araC::FRT-kan clone corresponds to JW0063, a BW25113 araC knockout mutant ordered from the Keio Collection directly. pBTL-1 represented the blank vector, and pLPCA referred to lpcA gene overexpression. […] To analyze the LPS level in the cells indicated in FIG. 19, LPS are extracted from the cells grown to exponential phase. Loading of LPS for the protein gel is normalized to the cell number. The gel is stained to visualize LPS protein bands after desired separation is obtained.
(§3) BW25113, MG1655, and derivatives were used where indicated. JW0063, an araC mutant of BW25113 was obtained from the Coli Genetic Stock Center (Yale). Overnight bacterial cultures were grown in Luria-Bertani medium with shaking. MOPS minimal medium (previously presented) with 0.2% glucose as a carbon source, was used for all seed cultures and growth studies. Seed cultures were inoculated at 2 v/v % from an overnight culture and were grown to mid-exponential phase. Growth cultures were inoculated with 10 v/v % seed cultures of an OD600 of 0.195-0.200 for an initial optical density of ˜0.02. Carbenicillin and kanamycin were used where appropriate at 100 μg/ml and 30 μg/ml, respectively. The pBTL-1 vector (previously described) was used as the control blank vector for all growth studies. Genome-wide furfural selection

[3] = system: BW25113 ArecA cells transformed with the blank pBTL-1 vector; format: cell-based, E. coli
Protocol: as §1, §2, §3

pBTL-1 lpcA culture = format: cell-based, E. coli; details: aerobic growth in 1 g/L furfural
Protocol: Certain experiments described herein were performed in E. coli BW25113 recA-, with the kanamycin resistance gene removed.
Cultures were grown in 10 ml MOPS minimal media, 100 μg carbenicillin/ml, and either 1 g furfural/1 supplemented, 2 g HMF/1, or 4 g acetate/1, in 15 ml conical tubes at 37° C. The optical density of 1 ml culture was measured with a spectrophotometer at 600 nm. A natural log transformation of the data was then calculated and then a regression line was fit to the data to calculate specific growth, which is […] to the culture doubling time. The blank vector, pBTL-1, served as the control. The lpcA gene was cloned into the pBTL-1 using standard cloning techniques and primers designed to amplify the gene from template DNA.

[4] = system: BW25113 araC::FRT-kan clone (JW0063); assay: Cell growth (OD600) in MOPS minimal media with furfural, araC knockout; format: cell-based, E. coli; details: furfural 1 g/L
Protocol: In other exemplary methods, tolerance and expression of LPS was restored in a microorganism. FIG. 19 represents an example of restoration of tolerance and LPS expression in BW25113 ArecA clone. The indicated cells were grown in MOPS minimal media supplemented with glucose as a carbon source. Furfural was added to the media at the concentration of 1 g/L. Arabinose was added at 10 mM where indicated to gauge effect of AraC binding. The BW25113 araC::FRT-kan clone corresponds to JW0063, a BW25113 araC knockout mutant ordered from the Keio Collection directly. pBTL-1 represented the blank vector, and pLPCA referred to lpcA gene overexpression. Consistent with the Examples above, overexpression of lpcA gene increased cell growth (OD600 of 0.1 vs. 0.05) in the presence of furfural. Addition of Arabinose to the lpcA gene overexpression cells could further enhance the effect (OD600 of 0.3). […] To analyze the LPS level in the cells indicated in FIG. 19, LPS are extracted from the cells grown to exponential phase. Loading of LPS for the protein gel is normalized to the cell number. The gel is stained to visualize LPS protein bands after desired separation is obtained.
BW25113, MG1655, and derivatives were used where indicated. JW0063, an araC mutant of BW25113 was obtained from the Coli Genetic Stock Center (Yale). Overnight bacterial cultures were grown in Luria-Bertani medium with shaking. […]

[5] = furfural vs. furfuryl alcohol; cited from earlier work

O=Cc1ccco1 [furfural, furan-2-carbaldehyde]
MIC (MG1655 E. coli strain; MG1655, read-out: MIC of furfural): 1250 µg/mL
MIC (MG1655 E. coli strain; MG1655, after 24 hr, n=3, read-out: MIC (first concentration of furfural that inhibited bacterial growth)): 1200 µg/mL (≈ 12.5 mM)
MIC (MG1655 E. coli strain; MG1655, after 48 hr, n=3, read-out: MIC (first concentration of furfural that inhibited bacterial growth)): 1800 µg/mL (≈ 18.7 mM)
activity reduction [1]: more than 80%
OD600 (cell growth in the presence of furfural) ([2]; Arabinose 10 mM): 0.3
OD600 (cell growth in the presence of furfural) ([2]; no Arabinose): 0.1
improvement of final optical density by pLPCA in BW25113 ([2]; furfural 1 g/l): 252±8%
OD600 at 24 hr ([2]; pLPCA cells, 1 g/L of furfural): about 1.2
OD600 at 24 hr ([3]; control cells, 1 g/L of furfural): about 0.2
OD600 (cell growth in the presence of furfural) ([3]; furfural 1 g/L, blank vector pBTL-1, no Arabinose, FIG. 19): 0.05
Final OD600 (24 hr) (pBTL-1 lpcA culture): 0.918
Specific Growth (pBTL-1 lpcA culture; n=3): 0.153 h⁻¹
OD600 (cell growth in the presence of furfural) ([4]; araC::FRT-kan without lpcA overexpression, no Arabinose): 0.5
OD600 (cell growth in the presence of furfural) ([4]; araC::FRT-kan, Arabinose 10 mM): 1.0
toxicity on a concentration basis [5]: ~2 g/L
